Laboratory results as given in patent publication US12304931B2, “MENTSH analogs as therapeutics for diabetes, obesity, and their associated diseases and complications” (University of Southern California, priority 2016, dated 2025).
Ends that are not written are not given here.

Assay: Pharmacokinetics of injected peptide in mice (ELISA)
Format: in vivo
Settings: ELISA detection
Description: FIG. 19. Detection of MENTSH mRNA and peptide and pharmacokinetics of injected peptide in mice. Northern blot hybridization identified the presence of MENTSH transcript in mitochondrial mRNA.
Northern blot hybridization identified the presence of MENTSH transcript in mitochondrial mRNA (FIG. 19). Further, the Inventors developed an ELISA assay for detection of MENTSH. […] Increasing persistent bioavailability of MENTSH by analogs, or other artificial modifications may further improve biological effects for therapeutic use.

- persistence of injected peptide: ~1 h
Sequence: MKPNPATQNLSMLLNYPH [MENTSH, MKPNPATQNLSMLLNYPH]
